Measurements published in ChEMBL document CHEMBL1671865, “Clostridium difficile infections in a Canadian tertiary care hospital before and during a regional epidemic associated with the BI/NAP1/027 strain” (2008).
≈ marks a conversion by molar mass, not a printed value.

Columns and labels:
Type in all cases: functional
Clostridioides difficile [1] = test: Antimicrobial activity against Clostridium difficile harboring ribotype 001 by CLSI agar dilution method
Clostridioides difficile [2] = test: Antimicrobial activity against Clostridium difficile harboring ribotype 027 by CLSI agar dilution method
Clostridioides difficile [3] = test: Antimicrobial activity against Clostridium difficile harboring other ribotypes by CLSI agar dilution method

Compound	MIC50 (Clostridioides difficile [1]) [µg/mL]	MIC90 (Clostridioides difficile [1]) [µg/mL]	MIC (Clostridioides difficile [2]) [µg/mL]	MIC50 (Clostridioides difficile [2]) [µg/mL]	MIC90 (Clostridioides difficile [2]) [µg/mL]	MIC50 (Clostridioides difficile [3]) [µg/mL]	MIC90 (Clostridioides difficile [3]) [µg/mL]	MIC (Clostridioides difficile [1]) [µg/mL]
CN[C@H](CC(C)C)C(=O)N[C@H]1C(=O)N[C@@H](CC(N)=O)C(=O)N[C@H]2C(=O)N[C@H]3C(=O)N[C@H](C(=O)N[C@H](C(=O)O)c4cc(O)cc(O)c4-c4cc3ccc4O)[C@H](O)c3ccc(c(Cl)c3)Oc3cc2cc(c3O[C@@H]2O[C@H](CO)[C@@H](O)[C@H](O)[C@H]2O[C@H]2C[C@](C)(N)[C@H](O)[C@H](C)O2)Oc2ccc(cc2Cl)[C@H]1O [VANCOMYCIN]	1 (≈ 0.69 µM)	1 (≈ 0.69 µM)	0.5 (≈ 0.345 µM)	0.5 (≈ 0.345 µM)	2 (≈ 1.38 µM)	1 (≈ 0.69 µM)	1 (≈ 0.69 µM)	
CCS(=O)(=O)CCn1c([N+](=O)[O-])cnc1C [TINIDAZOLE]	0.5 (≈ 2.02 µM)	0.5 (≈ 2.02 µM)		1 (≈ 4.04 µM)	1 (≈ 4.04 µM)	0.25 (≈ 1.01 µM)	0.5 (≈ 2.02 µM)	
RAMOPLANIN	0.25	0.25		0.12	0.25	0.25	0.25	
COc1c(N2CCNC(C)C2)c(F)cc2c(=O)c(C(=O)O)cn(C3CC3)c12 (stereo not drawn) [GATIFLOXACIN]	32 (≈ 85.2 µM)	32 (≈ 85.2 µM)		> 32	> 32	2 (≈ 5.33 µM)	> 32	
CCC[C@@H]1C[C@@H](C(=O)N[C@@H]([C@H]2O[C@H](SC)[C@H](O)[C@@H](O)[C@H]2O)[C@H](C)Cl)N(C)C1 [CLINDAMYCIN]	> 64	> 64		4 (≈ 9.41 µM)	8 (≈ 18.8 µM)	4 (≈ 9.41 µM)	8 (≈ 18.8 µM)	> 64
Cc1ncc([N+](=O)[O-])n1CCO [METRONIDAZOLE]	0.5 (≈ 2.92 µM)	0.5 (≈ 2.92 µM)		1 (≈ 5.84 µM)	1 (≈ 5.84 µM)	0.25 (≈ 1.46 µM)	0.5 (≈ 2.92 µM)	
